Data set [1] is described as follows: Relative distribution coefficient of epoxybutene into the aqueous phase in the presence of a water-miscible solvent. The format is physicochemical. To be noted: one part solvent added to two parts of 2:1 water-epoxybutene mixture, room temperature, aqueous phase by GC; relative to water alone (=1.00). The method, then: This example compares the absorption affinity of various water-miscible solvents for epoxybutene in the presence of water, as occurs in the absorbent zone of the present invention. A standard mixture of 2 parts by weight water and one part by weight epoxybutene was prepared. A portion of the standard solution was placed in a separatory funnel, shaken, allowed to settle, then separated into two liquid phases at room temperature. The water phase was analyzed by gas chromatography to determine the solubility of epoxybutene in pure water. Next, for each solvent specified in Table I, one part by weight water-miscible solvent was added to two parts of the standard water-epoxybutene solution. Each water-solvent-epoxybutene solution was placed in a separatory funnel, shaken, allowed to settle, then separated into two liquid phases at room temperature. The aqueous phase from the decantation was analyzed by gas chromatography to determine the epoxybutene solubility in that phase. From these compositions, distribution coefficients were calculated as: [formula]
The relative affinity of solvents for absorption of epoxybutene was determined from a relative molar distribution term, calculated as: [formula]

Data set [2] is described as follows: Rate of epoxybutene hydrolysis in phosphate buffers at different pH, followed by UV spectrophotometry. The format is physicochemical. The method, then: The rate of epoxybutene hydrolysis was determined at several different pH levels according to the following procedure: A stirred, thermostatted cell was filled with a solution of buffered water and allowed to equilibrate at a temperature of 29° C. Phosphate buffers at a pH of 3, 5, 7, 8, 9, and 11 were prepared by adding either phosphoric acid or sodium hydroxide to a 0.05 M solution of disodium phosphate. For each experiment, the buffer solution was charged to a stirred, thermostatted equilibrium cell equipped with an UV spectrophometer probe. Once the solution had equilibrated at 29° C. and a background spectra had been collected, a 10 microliter standard sample of epoxybutene in acetronitrile (warmed to 29° C.) was injected into the cell to give an initial concentration of 0.01M epoxybutene. The disappearance of epoxybutene and formation of 3-butene-1,2-diol over time was followed by UV spectrophotometry.

For data set [3] the following is noted: 25° C.; cited from earlier work.

Turning to `CN1CCCC1=O` [1-Methyl-2-Pyrrolidinone], the “Relative Distribution” value in data set [1] came out at 2.78. Turning to `CCCCOCCOCCO` [2-(2-Butoxyethoxy)ethanol], in data set [1], the “Relative Distribution” value turned out to be 4.30. On the same count and under the same terms, to `COCCOCCO` [2-(2-Methoxyethoxy)ethanol] belongs 1.83; to `CCCCOCCO` [2-Butoxyethanol], 1.29. With `COC(C)COC(C)=O` (stereo not shown) [2-Methoxypropyl Acetate], the “Relative Distribution” value in data set [1] was found to be 1.05. Turning to `CCCOCCO` [2-Propoxyethanol], the “Relative Distribution” value in data set [1] worked out at 1.49.

With `C=CC(O)CO` (stereo not shown) [3-Buten-1,2-Diol], the “Relative Distribution” value in data set [1] worked out at 1.39. As to `CC#N` [Acetonitrile], the “Relative Distribution” value in data set [1] stood at 1.89. Same read-out and setting: to `CN(C)C=O` [Dimethylformamide] belongs 2.44.

In the case of `C[S+](C)[O-]` [Dimethylsulfoxide], in data set [1], the “Relative Distribution” value stood at 1.40.

As for `C=CC1CO1` (stereo not shown) [Epoxybutene, 3,4-epoxy-1-butene], the “Relative Rate of Epoxybutene Hydrolysis” value in data set [2] (pH 3, phosphate buffer, 29° C., relative to pH 7) was 555.5; in data set [2] (pH 3, phosphate buffer, 29° C., relative to pH 7, listed as epoxybutene), “over 500”; in data set [2] (pH 5, phosphate buffer, 29° C., relative to pH 7), 5.6; in data set [2] (pH 7, phosphate buffer, 29° C. (reference)) it was 1.0; in data set [2] (pH 8, phosphate buffer, 29° C., relative to pH 7), 0.7; in data set [2] (pH 8, phosphate buffer, 29° C., relative to pH 7, listed as epoxybutene) it was “about 0.7”. The “Relative Rate of Epoxybutene Hydrolysis” value in data set [2] (pH 9, phosphate buffer, 29° C., relative to pH 7) is on record as 3.2; in data set [2] (pH 11, phosphate buffer, 29° C., relative to pH 7) it was 17.6; in data set [2] (pH 11, phosphate buffer, 29° C., relative to pH 7, listed as epoxybutene) it was “over 17”. In addition, the “solubility of epoxybutene in water” value in data set [3] is 5 to 6 weight percent. For `OCCO` [Ethylene Glycol], in data set [1], the “Relative Distribution” value turned out to be 1.14.

As for `COCC(C)O` (stereo not shown) [Propylene Glycol Monomethyl Ether], the “Relative Distribution” value in data set [1] is given as 2.02. As to `CC(O)CO` (stereo not shown) [Propylene Glycol], the “Relative Distribution” value in data set [1] stood at 1.90.

Regarding `c1ccc2ncccc2c1` [Quinoline], in data set [1], the “Relative Distribution” value stood at 1.03.

Take `COCCOCCOCCOC` [Triglyme]: the “Relative Distribution” value in data set [1] was 1.54.
